Laboratory results taken from the METLIN SMRT retention time set (Domingo-Almenara et al. 2019).

Assay: gradient 5% acetonitrile 3 min, to 50% in 2 min, to 85% in 15 min, held 3 min, 100 µL/min
Details: column: Zorbax Extend-C18 2.1 x 50 mm; eluents: water / acetonitrile, 0.1% formic acid
Procedure, shortened: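 Retention times come from adduct peaks that were picked computationally and then checked by hand. The standards, pure and pooled in mixtures of ~100 molecules, were run on a Zorbax Extend-C18 column (2.1 × 50 mm, 1.8 μm) at 100 μL/min with water and acetonitrile, each with 0.1% formic acid. Detection was by quadrupole time-of-flight mass spectrometry in positive and negative ionization mode, with a dead volume of 40 μL and a dwell volume of 900 μL.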

Compound	RP-LC retention time
CCN(C(=O)CN1C(=O)NC(c2ccc(Cl)cc2)C2=C1COC2=O)c1ccccc1 (centres undefined)	834 s
O=C(c1cccs1)N1CCN(S(=O)(=O)c2cc(-c3noc(C4CCC4)n3)cs2)CC1	998 s
O=C(Nc1ccc(Cl)cc1)N1CCC(n2cnc3ccc(F)cc3c2=O)CC1	848 s
COc1ncc(C(=O)NCc2ccc(C(F)(F)F)cc2)cn1	773 s
Cc1ccc(NC(=O)Cn2nc(N3CCCCCC3)c3ccccc3c2=O)cc1C	1200 s
CCOc1ccccc1N1CC(c2nc3ccccc3n2CCN2CCOCC2)CC1=O (centres undefined)	610 s
CCc1ccc(S(=O)(=O)N2CCN(Cc3nc4cc(C(C)(C)C)ccc4o3)CC2)cc1	998 s
COc1cc(C(=O)Nc2cccc(-c3cn4cccnc4n3)c2)cc(OC)c1OC	642 s
Clc1ccc(Sc2c(-c3ccccc3)nc3ncccn23)cc1	1030 s
COc1cccc(/C=C/c2nc(C#N)c(NCCN(C)C)o2)c1	654 s
COC(=O)c1cc2c(=O)n(Cc3ccc(OC)cc3)ccc2nc1C	836 s
O=S(=O)(c1cc(-c2cc(C(F)(F)F)on2)cs1)N(Cc1ccco1)C1CCCCC1	1300 s
CC(CNC(=O)CN1C(=O)C2CCCCN2c2ccc(S(=O)(=O)N(C)C)cc21)c1ccccc1 (centres undefined)	943 s
CCOc1cn(-c2ccc(F)cc2)nc1C(=O)NCc1cccs1	873 s
Cc1ccc2c(c1)N(C(=O)N1CCC(C(=O)NCc3ccccc3)CC1)CCO2	820 s
O=c1c2nc(-c3ccc(F)cc3)cn2ccn1-c1ccc(Cl)cc1	867 s
CCN1C(=O)NC(c2ccccc2C(F)(F)F)C2=C1CN(CCC(=O)NC1CC1)C2=O (centres undefined)	605 s
COc1ccc(C(=O)N(Cc2cc(OC)c(OC)c(OC)c2)CC2CCCO2)cc1 (centres undefined)	810 s
CCN1C(=O)c2cccc3c(NC(=O)Cc4cccs4)ccc1c23	718 s
Cc1csc(-c2csc(S(=O)(=O)N3CCN(c4ccccc4)CC3)c2)n1	1090 s
Cc1cc(Cl)ccc1OCCCC(=O)NO	801 s
CCCCS(=O)(=O)N1CCC(C2CCN(C(=O)NC)CC2)C1 (centres undefined)	682 s
Cc1ccc(-n2c(=O)n(CC(=O)Nc3ccccc3C)c3cccnc32)cc1	865 s
Cc1cc(C)cc(NC(=O)C2CCCN(c3ncnc4c3nc3n4CCCCC3)C2)c1 (centres undefined)	907 s
CCOc1ccc(S(=O)(=O)N2CCc3c(c(-c4nnc(-c5ccccc5)o4)nn3C)C2)cc1	996 s

Compound	RP-LC retention time
COC(=O)c1ccc(CSc2ncnc3c2cnn3-c2ccc(C)cc2C)o1	1070 s
COc1ccccc1CCNC(=O)CCCn1cccc1	774 s
COc1ccc(NC(=O)c2nnc(CSCC(=O)N3CCN(c4ccccn4)CC3)s2)cc1	629 s
CCC(C)NC(=O)C1CCN(Cc2cn(C)c3ccc(Cl)cc23)CC1 (centres undefined)	673 s
O=C(NCc1csc(-c2ccccc2)n1)C1CCN(S(=O)(=O)c2cccc(Cl)c2)CC1	962 s
O=C(O)c1cn(-c2cccc(Br)c2)nn1	723 s
CCc1nc2cc(CNC(=O)Cc3ccccc3C)ccc2n1C	618 s
CCC(CC)C(=O)NCCc1nc2cccnc2n1-c1ccccc1	744 s
COc1ccc(-c2ncc3c(n2)CCN(C(=O)c2cccc(Br)c2)C3)cc1	1020 s
Cc1nc(C)c(C(=O)Nc2nc(-c3ccc(C)c(C)c3)cs2)s1	1060 s
Cc1nnc(N2CCCC(C(=O)NCc3cccnc3)C2)c2nn(-c3ccccc3)c(C)c12 (centres undefined)	579 s
CCCc1ccc(S(=O)(=O)Nc2ccc3nc(S(=O)(=O)CCC)sc3c2)cc1	1080 s
CCOc1ccc(S(=O)(=O)Nc2cccc(-c3cn4cccc(C)c4n3)c2)cc1	666 s
CCc1csc(-c2ccc(N3CCN(C(=O)c4ccc(OC)c(OC)c4)CC3)nc2)n1	839 s
CCc1cccc(Nc2ncccc2S(N)(=O)=O)c1	889 s
O=S(=O)(c1ccc2c(c1)CCCC2)N1CCCC1c1nc(-c2ccc(Cl)cc2)no1 (centres undefined)	1370 s
O=C(CN1CCN(Cc2ccc(F)cc2Cl)C1=O)NCC1CCCCC1	927 s
Cn1cccc(C(=O)NCCCn2cccc2)c1=O	644 s
Cc1ccc(-n2cc3c(N4CCCC(C(=O)NCc5ccc(C(F)(F)F)cc5)C4)ncnc3n2)cc1 (centres undefined)	786 s
CCC(C)NC(=O)c1sc(-c2cn(C(C)C)c3ncccc23)nc1C (centres undefined)	931 s
Cc1noc(C)c1S(=O)(=O)NCCc1noc(-c2ccccc2)n1	848 s
Cc1ccc(C(=O)CC2(O)C(=O)Nc3c(C)cccc32)cc1 (centres undefined)	748 s
O=C(c1cn2ccccc2n1)N1CCN(c2ccc(Cl)cc2)CC1	709 s
O=c1c(S(=O)(=O)N2CCCCCC2)cccn1Cc1cc(F)cc(F)c1	999 s
Cc1ccn2c(NC(=O)CC(C)(C)C)c(-c3ccccc3)nc2c1	666 s

Other lines, results leading:

RP-LC retention time	Compound
637 s	Cc1cc(S(=O)(=O)N2CCn3c(nnc3C3CCN(C(C)C)C3)C2)ccc1Cl (centres undefined)
803 s	CCOC(=O)C1CCCN(C(=O)CCC(=O)N2CCCn3nc(-c4cn(C)c5ccccc45)cc32)C1 (centres undefined)
688 s	CCCNC(=O)c1cc2n(n1)CC(C)(C(=O)NCc1ccc(F)cc1)N(C)C2=O (centres undefined)
630 s	O=C(CN1C(=O)CCC1=O)Nc1ccc2c(c1)CN(C(=O)c1cccs1)CC2
723 s	CC1CN(C(=O)Cn2cc(SCC(=O)NCC3CCCO3)c3ccccc32)CC(C)O1 (centres undefined)
818 s	Cc1ccc(N2C(=O)CN(S(C)(=O)=O)CC2(C)C(=O)NCc2ccc(F)cc2)cc1C (centres undefined)
730 s	COc1cc(C(=O)N2CCC3(CC2)NC(=O)c2cc(C)ccc2N3C)cc(OC)c1OC
736 s	Cc1ccc(CNC(=O)C(C)n2nc(C)c3c(C)n(-c4ccccc4)nc3c2=O)o1 (centres undefined)
860 s	Cc1cccc(-c2cc3n(n2)CCCN(C(=O)c2n[nH]c4ccccc24)C3)c1
927 s	CC(C)c1ccc2c(c1)-c1ccccc1S(=O)(=O)N2CC(=O)N1CC(=O)Nc2ccccc21
959 s	Cc1ccc(-n2c(N3CCCC(C(=O)Nc4ccc(F)cc4)C3)nc3ccsc3c2=O)cc1 (centres undefined)
585 s	CCN1CCN(c2ccc(-c3ccc(OC)c(S(=O)(=O)N4CCOCC4)c3)nn2)CC1
656 s	Cc1ccc(CNC(=O)C2(CCO)CCN(Cc3ccccc3)C2)o1 (centres undefined)
776 s	CCOC(=O)COc1cc(-c2ccc(C)cc2)nc2ccc(NC(=O)C3CC3)cc12
724 s	CCCN(C)c1nccn2c(=O)n(CC(=O)Nc3cccc(Cl)c3)nc12
1300 s	CCCN1C(=O)COc2ccc(-c3noc(-c4cccc(N(C)C)c4)n3)cc21
747 s	Cc1ccc(C2=NC3(CCN(C(=O)c4ccc[nH]4)CC3)ON2)cc1
587 s	CCN1CCCn2cc(S(=O)(=O)N3CCN(Cc4ccccc4)CC3)cc2C1=O
688 s	O=c1nc(Oc2ccccc2)nc2ncccn12
712 s	O=C(NCc1ccc(Cl)cc1)C1CCN(c2cnc(N3CCCC3)nc2)CC1

RP-LC retention time	Compound
586 s	CCCn1c(C)cnc1C1CN(C(=O)c2cccs2)C1
1110 s	COc1cc(OC)cc(-c2nnc(Cc3nc(-c4ccc(Cl)cc4)no3)o2)c1
564 s	c1nc(NC2CCCCCC2)c2[nH]cnc2n1
980 s	COc1cc(Cl)c(NS(=O)(=O)c2c(C)sc(C)c2-c2n[nH]c(C)c2C)c(OC)c1
905 s	COc1cccc(-n2ccc(=O)c(-c3nc(-c4cccc(F)c4)no3)n2)c1
711 s	CC(C)N1CCC2(CC1)N=C(c1ccc(Br)cc1)CC(c1cc(Cl)ccc1O)N2 (centres undefined)
912 s	COc1cccc(Nc2c(-c3ccc(SC)cc3)nc3cnccn23)c1
644 s	Cc1nc(-c2ccc(S(=O)(=O)N3CCN(c4ccc(N5CCOCC5)nn4)CC3)cc2)co1
736 s	Cc1ccc(CNC(=O)CN2C(=O)C3CCCN3C(=O)c3cccc(C)c32)cc1 (centres undefined)
799 s	CCc1nc(-c2csc(S(=O)(=O)N3CCC(C(=O)Nc4ccc(C)cn4)CC3)c2)no1
834 s	CCc1ccc(N2C(=O)CN(S(C)(=O)=O)CC2(C)C(=O)NCc2ccc(F)cc2)cc1 (centres undefined)
639 s	Cn1c(=O)n([C@@H]2CCN(C(=O)C3CCC3)C2)c2ncccc21
896 s	Cc1ccc(CN2N=C(C(=O)N3CCOCC3)S(=O)(=O)c3cc(Cl)ccc32)cc1
775 s	CCN1CCCn2cc(S(=O)(=O)Nc3ccc(C)cc3Cl)cc2C1=O
587 s	Nc1nnc(-c2cccnc2)s1
690 s	COC1CCOC2(CCN(C(=O)Nc3ccc4c(c3)OCCO4)CC2)C1 (centres undefined)
1020 s	CC(C)C(=O)Nc1nc(-c2cccc3ccccc23)cs1
601 s	CCNc1cc(N2CCCC(CCC(=O)NC(C)C)C2)ncn1 (centres undefined)
727 s	CC(C)c1nnc(NC(=O)C2CCN(C(=O)c3ccc(F)cc3)CC2)s1
